Results on eight molecules are retold here after US20130345268A1, “Methods and Compositions for the Treatment of RAS Associated Disorders” (The Trustees of Dartmouth College, priority 2009, published 2013).

Assay [1] has as its system T265 (NF1 mutant MPNST/sarcoma cells). Description: In vitro growth of NF1 mutant MPNST cells, alamar blue, dose-response. To be noted: Homo sapiens. The class given is cell-based. As to the method:
(§1) The NF1−/− MPNST line T265 used for the screen provides two additional readouts for the chemical approaches to suppress the phenotypes of NFI loss: activated Ras (Mahller et al., 2005) and activated MAPK (FIG. 1). In vitro growth assays of the two cell lines (NF1 positive and NF1 negative) are scaled down to 384 well plates. An Evotec Technologies plate::explorer uHTS system is used. MPNST cell lines T265 and STS26T in logarithmic growth phase are plated in separate 384 well plates at a density of 500 cells per well in Dulbecco's modified Eagle's medium (DMEM; Fisher Scientific; Pittsburgh, Pa.) supplemented with 10% Fetal Bovine Serum (Harlan; Indianapolis, Ind.) containing vehicle (DMSP, “Dimethyl Sulfoxide”) only or one of 13,031 candidate compounds at a concentration of 10 micromolar, a concentration of drug shown not to cause cell death of many human cell lines. The candidate compounds are selected to represent a cross section of compounds covering the diversity space resident in the available library, restricted to drug-like compounds, but evenly and consistently representative across this realm and representative of commercially available compounds. Compounds targeting GPCRs, kinases and other targets of known medical interest are also included. The cells are incubated with the compounds or 5 μg/ml doxorubicin as a positive control for 2 days. Growth is monitored by using the alamar blue method (Alley et al. 1988; Ahmed et al. 1994.) Metabolic activity of cells results in reduction of alamar blue and a large increase in alamar blue fluorescence, which correlates with cell number. Candidate compounds causing interference with fluorescence are eliminated. […] Appropriate control samples and statistical analyses are used.
(§2) Confirmed hits that decreased viability of both cell lines were identified as possible therapeutic agents. A smaller population of hits selectively affected the non-NF1 cell line. These seven confirmed “hits,” or potential therapeutic agents, were tested using the same assay method at 10 concentrations, in triplicate, to give a dose-response and to determine the AC50 (the concentration at which 50% of the maximum activity or inhibition is achieved) for each compound. Using the initial screen, seven compounds are identified showing a significant differential growth inhibition of the mutant NF1 cells relative to wild type NF1 cells.

Assay [2] concerns STS26T (26T, NF1 wild type MPNST/sarcoma cells). Briefly: In vitro growth of NF1 wild type MPNST cells, alamar blue, dose-response. The format is cell-based, human. The following applies: for IC50: Homo sapiens, STS-26T. As to the method: as §1, §2
Assay [3] has as its system U-87 MG GBM (glioblastoma) cells. Description: Growth of glioblastoma cells in vitro, Alamar Blue. The format is cell-based. To be noted: Homo sapiens, 72 h, U87-MG cells, three days, normalized to DMSO-treated wells, three independent experiments. As to the method: FIG. 4 depicts the effects of two compounds active in NF1−/− MPNST cells on the growth of U-87 MG GBM (glioblastoma) cells in vitro. FIG. 4a depicts the effects of the compound of Formula I(a); FIG. 4b depicts the effects of the compound of Formula IV(c). U87-MG cells were seeded in 96 well plates at a density of 1000 per well in DMEM containing 10% fetal bovine serum. The next day, medium was removed and fresh medium containing 0.1% DMSO or compound was added back. Plates were incubated for three days at 37° C., 5% CO2. Cell growth was assessed with Alamar Blue with values normalized to the DMSO-treated wells. Values are mean of three wells. The AC50 for the compound of Formula Ia was 3.77 micromolar +/−0.7. The AC50 for the compound of Formula IV(c) was 0.97 micromolar +/−0.1. AC50 was calculated using data from three independent experiments.

The test system of assay [4] is cells lacking Ira2 and Erg6. Description: Growth of strains lacking Ira2 and Erg6, optical density at 595 nm. To be noted: Synthetic Complete media, 32C, 24 h, OD 595 nm. The class given is cell-based. Here is the method: FIG. 3. […] Strains were grown overnight in Synthetic Complete media. 75 μL of culture at a starting optical density of 0.1 were added to a 96 well plate containing 75 μL of Synthetic Complete media with twice the desired final concentration of compound in 1% DMSO. Plates were incubated in a humidified 32C chamber, and scanned on an optical density plate reader at 595 nm after 24 h. The bars represent the mean of three wells, and the error bars represent ±2× standard error.

Where [5] appears, read: 48 h, Table 3, T265 cells, alamar blue, 2 days, 10 concentrations in triplicate, read-out: T265 IC50.
Where [6] appears, read: 48 h, Table 3, STS26T cells, alamar blue, 2 days, 10 concentrations in triplicate, read-out: 26T IC50.
[7] abbreviates: Table 4, NF1 mutant sarcoma cells (T265), read-out: IC50, T265.
The mark [8] stands for this setting: Table 4, NF1 wild type (26T) sarcoma cells, read-out: IC50, 26T.

Like-named read-outs stand apart in the source and are kept apart here.

Consider `CCc1cc(-c2ccccc2OS(=O)(=O)c2ccc3ccccc3c2)nn1CCNCCOc1ccccc1` [VI], for which the IC50 in assay [1] (setting [5]) was 4.5 µM; in assay [2] (setting [6]) it was 1.9 µM.
In the same order, the values of `CCN(CC)C(=S)SCC(=O)n1c(C)cc(-c2ccccc2F)c1C` [XI] are 1.7 µM and 1 µM.
Molecule `Cc1ccc(NC(=O)C2=C(c3ccccc3)S(=O)(=O)CCS2(=O)=O)cc1` [Formula IV(c)] showed a half-maximal activity concentration (AC50) in assay [3] of 0.97 µM.
Consider `CCc1cc(-c2ccccc2OS(=O)(=O)c2ccc3ccccc3c2)nn1CCNCCc1ccc(OC)c(OC)c1` [V], for which the IC50 in assay [1] (setting [5]) was 2.8 µM; in assay [1] (setting [7]) it was 2.9 µM; in assay [2] (setting [6]), 22.8 µM; in assay [2] (setting [8]), 22.9 µM.
Turning to `CCCCc1ccc2nc(-c3ccccc3)cc(C(=O)NC(C(=O)NC(C)CCCN(CC)CC)C(C)C)c2c1` (centres unmarked) [III], in assay [1] (setting [5]), the IC50 stood at 3 µM. For the same molecule, the “26T IC50” value in assay [2] (Table 3, STS26T cells, alamar blue, 2 days, 10 concentrations in triplicate) was “No Effect”.
`N=C(N)SCc1cn(-c2ccccc2)nc1-c1cccc(Br)c1` [Formula Ia]: the IC50 in assay [1] (setting [5]) came out at 1.3 µM; in assay [1] (setting [7]), 1.3 µM; in assay [2] (setting [6]) it was 50.3 µM; in assay [2] (setting [8]), 50.3 µM. Besides, in assay [3], the activity was half-maximal at 3.77 µM (AC50). Moreover, in assay [4], the Inhibition of growth result is “Inhibition of growth”.
With `Cc1ccc(Cn2c(=N)n(CC(O)c3ccc(Br)cc3)c3ccccc32)cc1` (centres unmarked) [VIII], the IC50 in assay [1] (setting [5]) came to 1.1 µM; in assay [1] (setting [7]), 1.1 µM; in assay [2] (setting [6]), 19.5 µM; in assay [2] (setting [8]), 19.5 µM.
`Cc1ccc(Cn2c(=N)n(CC(=O)c3ccc(Br)cc3)c3ccccc32)cc1` [VII]: the values for the concentration for half-maximal inhibition (IC50) in assay [1] (setting [5]) and in assay [2] (setting [6]) were 0.078 µM and 0.056 µM, respectively.
